Some results are limits rather than exact numbers.

The target of assay [1] is T1, recombinantly expressed OR2AT4 (Homo sapiens, UniProt A6NND4).
T1 construct: expressed in transfected cells; host or cells: Hana3A cells, transient transfection with pcDNA3-OR2AT4 by the calcium phosphate method
T1 sequence (A6NND4 1-320): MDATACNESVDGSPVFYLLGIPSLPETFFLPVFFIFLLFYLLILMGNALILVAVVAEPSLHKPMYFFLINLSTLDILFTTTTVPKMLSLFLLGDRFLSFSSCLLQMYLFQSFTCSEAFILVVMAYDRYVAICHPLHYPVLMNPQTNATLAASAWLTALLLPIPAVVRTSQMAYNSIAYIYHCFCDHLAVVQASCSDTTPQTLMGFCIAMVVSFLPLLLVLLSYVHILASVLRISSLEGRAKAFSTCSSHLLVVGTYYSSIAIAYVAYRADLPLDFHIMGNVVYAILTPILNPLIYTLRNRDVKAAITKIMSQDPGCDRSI
Kind of assay: CRE dual luciferase assay in OR2AT4-transfected Hana3A cells. In kind it is cell-based. Conditions: for activation of the recombinant receptor in the CRE luciferase assay: 4-hour incubation, OR2AT4 expressed in Hana3A cells; for concentration required to produce a significant effect at the receptor: CRE luciferase assay. From the text:
In order to verify calcium imaging results and investigate dose-dependent activation of OR2AT4, a further method of deorphanization based on a dual luciferase system was used. In this method, in addition to the OR, two luciferases were introduced into the Hana3A cells. When the expressed OR is activated by an odorant and cAMP is formed in the further course of the signal cascade, this initiates expression of firefly luciferase via CRE (cAMP response elements). The second luciferase, Renilla luciferase, serves as a control for transfection and vitality of the cells. By calculating the two luciferase values, the activation capacity of an OR by an odorant can be determined. In the CRE luciferase assay, the odorant remains on the cells for hours in order to ensure that the luciferase is expressed. Because of the longer incubation time of the odorants and the possibility of activating more receptors in a 96-well format, this method is more sensitive than calcium imaging and is well-suited for establishing dose-response relationships.
For Brahmanol, however, a higher concentration (≥75 μM) was required than for Sandalore® (≥25 μM) in order to produce a significant effect at the receptor (FIG. 3c).
Determination of receptive field of recombinantly expressed OR2AT4. […] As a control, untransfected Hana3A cells were simulated with Sandalore®. 100 μM of ATP was used at the end of each measurement as a positive control stimulus. […] The mean response rate including standard error of the cells is shown relative to the Ringer control. […] Isobornyl.: isobornyl cyclohexanol; S. öl: sandalwood oil. Kruskal-Wallis test with multiple comparison. *: p<0.05. […] Significance was determined between Hana3A cells transfected with OR2AT4-pcDNA3 and pcDNA3 without an insert. The dots show mean normalized luciferase-activity including standard error. Mann-Whitney U test; n=3 experiments. *: p<0.05; **: p<0.01; ***: p<0.001.

The next assay has as its system HaCaT cells. Briefly: Proliferation assay (CyQuant) on HaCaT cells. In kind it is cell-based, human. On the procedure: It was next investigated whether Sandalore® has an effect on the growth behavior of skin cells. For this purpose, HaCaT cells were again stimulated for five days with Sandalore®, and cell count determination was carried out by means of a proliferation assay. […] In order to verify that this increase in proliferation is induced via activation of OR2AT4, HaCaT cells were transfected with siRNA or scRNA respectively, and the proliferation assay was repeated.
In addition, the cell count was determined after costimulation (1:1) by Sandalore® (500 μM) with the antagonists Oxyphenylon (500 μM) or Phenirat (500 μM). […] The effect was significant for Oxyphenylon.
Effect of Sandalore® long-term stimulation on morphology, growth, and migration processes in keratinocytes. A) Phase contrast image and PI stains of HaCaT cells and primary keratinocytes after stimulation with Sandalore® (500 μM) or 0.1% DMSO (control) for five days. On positive PI staining, the cell nuclei are stained red. Scale: 100 μm. B) Evaluation of the proliferation assay carried out with the CyQuant Cell Proliferation Kit on HaCaT cells after 5-day stimulation with 500 μM of Sandalore® or 0.1% DMSO (control). For the RNA interference experiments, the cells were transfected with siRNA or scRNA on the day before Sandalore® stimulation. Shown is the mean cell count including standard error relative to untreated cells. Mann-Whitney U test; n=3 experiments. *: p<0.05; **: p<0.01. S: Sandalore. C) Agarose assay for determination of migration of HaCaT cells. Top: Transmitted light images of HaCaT cells that have migrated in the direction of Sandalore® (500 μM) or 0.1% DMSO. The growth margin of the cells was surrounded in black. Scale: 250 μm. Bottom: Evaluation of the proliferation assay. The longest path traversed by the cells and the overgrown area were measured and compared to the control (0.1% DMSO). Paired two-sided T test. Mean values including standard error; n=4 experiments. **: p<0.01; ***: p<0.001.

A further assay has as its system IL-1α. Briefly: Quantitative real-time PCR of IL-1α in HaCaT cells. In kind it is cell-based, human. The method, then: In order to investigate interleukin secretion, quantitative real-time PCR was first carried out. For this purpose, RNA from HaCaT cells was used that had previously been stimulated for 6 or 24 hours with Sandalore®. Detection was carried out with specific primers of various interleukins (IL-1α, IL-1β, IL-6, IL-8) and tumor necrosis factor (TNF▪). […] In order to corroborate the results, an ELISA assay was carried out, in which the secreted interleukins in the supernatant of the cells can be detected by means of an immunological reaction. By means of the assay used, secretion of the interleukins (IL-1α, IL-1β, IL-2, IL-4, IL-6, IL-8, IL-10, IL-12, and IL-17α), TNFα, γ-interferon (IFNγ), and granulocyte macrophage colony-stimulating factor (GMCSF) was investigated.
Investigation of interleukin secretion and phosphorylation of Akt protein kinase after Sandalore® stimulation. A) Investigation of the regulation of interleukins in HaCaT cells by means of qRT-PCR after stimulation with Sandalore® (500 μM) for 6 h and 24 h. 0.1% DMSO was used as a control. GAPDH was used as a reference gene, and the relative expression between untreated and stimulated cells was determined. Mean values including standard error. n=3 experiments. […] The measured optical density of the treated cells at 450 nm was expressed relative to the background. […]

Regarding `CC1=CCC(CCC(C)CO)C1(C)C` (stereo not drawn) [Brahmanol®], in assay [1], the “activation of the recombinant receptor in the CRE luciferase assay” value is “significant dose-dependent activation” and the “concentration required to produce a significant effect at the receptor” value was no less than 75 µM.

`CC(=O)CCc1ccc(O)cc1` [Oxyphenylon]: the “effect of antagonist alone on proliferation” value in the assay on HaCaT cells (antagonist alone) is reported as “no significant effect”. Besides, in the assay on HaCaT cells (costimulation 1:1, Sandalore 500 μM + antagonist 500 μM), the “proliferation after costimulation with Sandalore” value is given as “proliferation was reduced. The effect was significant”.

As to `CC1=CCC(CCC(C)C(C)O)C1(C)C` (stereo not drawn) [Sandalore®], the “increase of proliferation compared to the control (0.1% DMSO)” value in the assay on HaCaT cells (5-day stimulation, 500 μM) is reported as 33%. Besides, in the assay on IL-1α (after 24 hours, 500 μM), the “increase of expression of IL-1α relative to the control (0.1% DMSO)” value was “approx. 10,000%”. In the assay on IL-1α (summary statement), the “expression of IL-1α” value is recorded as “increased”. Also, in assay [1], the “activation of the recombinant receptor in the CRE luciferase assay” value was “significant dose-dependent activation” and the “concentration required to produce a significant effect at the receptor” value was no less than 25 µM.

(Values after patent US10835500B2, “Medicament for accelerated wound healing” (Symrise AG, priority 2014, dated 2020).)
